The values below come from ChEMBL document CHEMBL3507680, “University of Dundee, Gates Library screen for HepG2 cell viability”.

This data set is described as follows: Human HepG2 cell viability assay in 384 well format. The class given is toxicity, cell-based. On the set-up: dose 125 nL, time 70.5 hour; cytotoxicity at 70.5 h: concentration not given beside the values. The conditions noted are these: HepG2 cells, read-out: Inhibition.

Regarding `CC(C)Oc1cccc(C(=O)C2CCCN(C(=O)c3cncs3)C2)c1` (stereo unspecified), the cytotoxicity at 70.5 h was -10.7%.
Under `Cc1ncc(-c2ccnc(N3CCN(C)CC3)n2)c(-c2cccnc2)n1` stands -13.1%; under `CCOCC(=O)N1CCC(c2nccn2Cc2cscn2)CC1`, 21.4%; under `CCc1ccc(CN(CC)Cc2ccc(S(=O)(=O)NC)cc2)cc1`, -1.74%.
Under `CN(Cc1nc(-c2cccs2)no1)Cc1nc2c(s1)CCCC2` stands -3.38%.
Take `Cc1cccc(-n2cnnc2CCCN2CCOCC2)c1`: the cytotoxicity at 70.5 h was -7.97%.
Under `CC(C)c1cc(C(=O)N2CC[C@@H](c3ccc4c(c3)OCO4)[C@H](O)C2)[nH]n1` stands 3.33%.
Under `COc1ccc(OC)c(-n2cnnc2COC(C)C)c1` stands -0.141%.
Regarding `COCCN1CCCC2(CCN(c3nccc4ccccc34)C2)C1=O` (stereo unspecified), the cytotoxicity at 70.5 h is 11.2%.
Under `C[C@@H]1CN(c2nc(N)nc3c2CCC3)CC[C@@]1(O)C1CCC1` stands 4.77%.
Under `OCC1(CCOc2ccccc2)CCN(c2ccc(Cl)cn2)CC1` stands -7.7%; under `O=S(=O)(c1cccnc1)N1C[C@@H]2CC[C@H](C1)N(Cc1ccccc1)C2`, -6.7%.
Under `CN(C)C[C@@H]1CN(C(=O)Cc2ccccc2)C[C@@H]1CO` stands -3.7%.
As for `Cc1nc(CCN(C)C(=O)CCNC(=O)c2ccccc2F)no1`, the cytotoxicity at 70.5 h is -4.9%.
Under `CN(Cc1ccccc1)CC1(O)CCCN(Cc2ccc(F)cc2)C1=O` (stereo unspecified) stands -3.64%.
Under `CNc1ncc(CN(C)C(=O)[C@@]23CNC[C@@H]2CN(C(=O)C2CC2)C3)cn1` stands -7.16%; under `CN1CCC(c2nnc(CN3CCOCC3)n2C)CC1`, -24.5%; under `C/C=C(\C)CN1CCC2(CCC(=O)N2OCc2ccccc2F)CC1`, -7.98%.
Under `CSCC[C@@H](CO)n1ccnc1-c1nccn1C` stands -5.66%.
As for `COc1ccc(-c2cn([C@H](CO)CC(C)C)nn2)cn1`, the cytotoxicity at 70.5 h was -4.51%.
Under `CC1(C)CNC(=O)c2nc(CCN3CCOCC3)[nH]c2C1` stands -7.47%.
In the case of `CCC(Nc1cccc(OC)c1)C(=O)NCc1ccc2[nH]c(=O)[nH]c2c1` (stereo unspecified), the cytotoxicity at 70.5 h was -11.6%.
Under `CC(C)Cc1ncc2c(n1)CN(c1cc(NCCO)nc(N)n1)C2` stands -8.13%; under `CCC(C)N(Cc1ccncc1)Cc1cccc(Cn2cccn2)c1` (stereo unspecified), -6.76%.
Under `COc1ccc(-c2n[nH]cc2CN(C)Cc2ccoc2)c(F)c1` stands -1.92%; under `Cc1cc(C(=O)N2CCC3(CC(=O)NC3=O)C2)c(-c2ccccc2)o1` (stereo unspecified), 17.4%.
For the molecule `CN1CCN2CCN(Cc3ccccc3Cn3cccn3)CC2C1` (stereo unspecified), the cytotoxicity at 70.5 h is -0.968%.
Under `COc1cccc(-c2n[nH]cc2-c2nc(CN3CCCC3)no2)c1` stands 1.58%; under `O=C(N[C@@H]1CCNC[C@H]1O)c1cc(F)cc(Cl)c1`, -1.46%.
Take `O=C(CN1CCOc2ccccc2C1)NCc1cc2n(n1)CCNC2`: the cytotoxicity at 70.5 h is -2.02%.
As for `COC1CCN(S(=O)(=O)N2CC(c3ccccc3)C(C)(C)C2)CC1` (stereo unspecified), the cytotoxicity at 70.5 h worked out at 27.1%.
On to `CC(C)Nc1ccc(-c2ccnc3c2ccn3C)nn1`, for which the cytotoxicity at 70.5 h was 15.5%.
Under `CC(C)(C)c1ncc(C(=O)NCCSc2ccccn2)c(O)n1` stands 30.9%.
Under `O=C(N[C@H]1CC[C@H](O)CC1)c1ccc2nc(-c3ccccc3)cn2c1` stands -7.18%; under `COc1ncccc1CN1CCN(c2noc(C(C)C)n2)CC1`, 3.17%.
Under `Cc1nc(N2C[C@@H](CN3CCCN(C)CC3)[C@@H](CO)C2)c2sccc2n1` stands 27.9%; under `O=C1CN(C(=O)CC2c3ccccc3CCc3ccccc32)CCN1`, 2.75%; under `Cc1nccn1CCC1CCN(C2CCC3(CCNCC3)CC2)CC1`, 13.6%.
As to `CSCC1CCCN(c2ncnc3oc(C)nc23)C1` (stereo unspecified), the cytotoxicity at 70.5 h is -9.81%.
Under `COc1cccc(Cn2cc(C3=CCN(CCO)CC3)cn2)c1` stands -11%; under `COc1ccccc1N1CCN(C(=O)Cn2nc(C)c(C)c2C)C(C)C1` (stereo unspecified), -3.01%.
Under `CN(C)CCNc1cc(-c2ncccc2O)c2cc[nH]c2n1` stands -7.75%; under `c1ccc(CCc2n[nH]c(C3CCC3)n2)cc1`, -2.16%.
Under `COCCN1CCC(c2nc3c([nH]2)CC(C)(C)CNC3=O)C1` (stereo unspecified) stands 10.3%; under `CCc1cnc(C)nc1NCCN1CCCC(C(N)=O)C1` (stereo unspecified), 0.301%; under `CCO[C@H]1C[C@@H](O)C12CCN(C(=O)CC(F)(F)F)CC2`, -7.18%.
As for `O=C1CC[C@@H](CN(Cc2ccncc2)Cc2nc(CC3CC3)no2)N1`, the cytotoxicity at 70.5 h is -5.49%.
Under `CCN(CCN1CCCCCC1)C(=O)c1cnc(-c2cccnc2)nc1` stands -2.81%; under `COc1cccc(-c2n[nH]cc2C(=O)NC(C)CC(=O)O)c1` (stereo unspecified), -2.91%.
For the molecule `CCc1nnc(CN(C)C(=O)CN2CC(c3ccccc3)CC2=O)o1` (stereo unspecified), the cytotoxicity at 70.5 h is -4.25%.
Take `O=C1CCN(C(=O)c2csc(-c3ccc(C(F)(F)F)cc3)n2)CCN1`: the cytotoxicity at 70.5 h is -8.28%.
Under `COc1ccccc1CN1C(=O)O[C@@H]2CN(c3ccccn3)C[C@@H]21` stands 22.7%; under `Cc1ccc(-c2nc(CN3CCOCC3)no2)cc1N1CCNC1=O`, -6.32%; under `CS(=O)(=O)N1C[C@@H]2CC[C@H](C1)N(C(=O)CCc1n[nH]c3c1CCCC3)C2`, 27.3%.
Under `Cc1cc(S(=O)(=O)N2C[C@H](C3CC3)[C@@H](N)C2)c(C)s1` stands -6.03%; under `Cc1[nH]c(=O)[nH]c(=O)c1CN1CCCC(CCc2ccccc2F)C1` (stereo unspecified), -5.63%.
Under `CCCOC(=O)N1CCCC2(CCN(Cc3cccc(C#N)c3)C2)C1` (stereo unspecified) stands -6.05%; under `CC(C)N1CCC(C(=O)N(C)CC(=O)c2ccc(O)cc2)CC1`, -17.5%; under `Cc1cc(CN2CCC3(CC2)CC(C(=O)O)N(C(=O)C2CC2)C3)oc1C` (stereo unspecified), -13.7%.
Regarding `CC(=O)N[C@@H]1CN(C2CCN(c3cccc(C)c3C)CC2)C[C@H]1C(C)C`, the cytotoxicity at 70.5 h was -5.59%.
Take `CC(C)CN1CCCC1c1ccc(C(=O)Nc2cccnc2)s1` (stereo unspecified): the cytotoxicity at 70.5 h came out at 0.0684%.
Under `CCN(CC)C(=O)[C@@H]1C[C@@H](N)CN1c1nc(N(C)C)nc(C)c1C` stands 2.56%.
Under `Cc1cc(C)c(Cn2cncn2)cc1CN1CCC(CN)C1` (stereo unspecified) stands -0.164%; under `N#Cc1cccc(NC2CC(=O)N(CCc3ccc(F)cc3)C2)n1` (stereo unspecified), 28.1%.
In the case of `Cc1nsc(NC(=O)NC2CCCOC2)n1` (stereo unspecified), the cytotoxicity at 70.5 h amounted to 23%.
Under `Cc1nnc(SCCCNc2cc(C3CC3)ncn2)s1` stands 22.4%; under `COc1nc2c(cc1C(=O)NCc1noc(Cc3cccs3)n1)CCC2`, -3.41%; under `CC(c1nncn1C)n1cc(-c2cc(CN3CCCC3)cs2)nn1` (stereo unspecified), 15.8%.
Under `Cc1cccc(C)c1OC1CN(C(=O)C2CCCN(C(=O)N(C)C)C2)C1` (stereo unspecified) stands -9.46%.
Under `COCc1ncc(CN2CCC(Oc3ccc(OC)cc3)CC2)cn1` stands -20.2%.
As for `O=C(c1ccc(S(=O)(=O)NCC(F)F)cc1)N1C[C@H]2CNC[C@H]2C1`, the cytotoxicity at 70.5 h is -1.24%.
Under `COc1ccc(N2CCN(C(=O)[C@@H]3C[C@@H](O)CN3)CC2(C)C)cc1` stands 6.62%; under `Cc1cc(C(=O)N2C[C@@H](CN(C)CCN(C)C)[C@@H](CO)C2)nc(C)n1`, 21.1%.
Regarding `CC(C)c1nc(CN(C)C(=O)CNC(N)=O)cs1`, the cytotoxicity at 70.5 h was -6.72%.
Under `CCn1c(C)nnc1SCCNC(=O)Cn1cnc2ccccc2c1=O` stands -4.84%; under `CN(Cc1nc(CC2CC2)no1)CC1Cc2ccccc2O1` (stereo unspecified), -6.88%.
Under `O=C(NCc1cnn2cccnc12)C1CC2(CCNCC2)CN1` (stereo unspecified) stands -4.05%; under `CC(C)n1cnnc1CN(C)C(=O)c1cccnc1O`, -4.11%; under `Cn1ccnc1C1CCN(S(=O)(=O)c2ccc3c(c2)OCCO3)CC1`, 9.02%.
For `CN(C)c1nc2c(c(N3CCC(O)CC3)n1)CN(CC1CCOC1)CC2` (stereo unspecified), the cytotoxicity at 70.5 h was -3.69%.
Under `CCC(Nc1nc(CCN)nc2ccccc12)c1cc(C)ccn1` (stereo unspecified) stands -5.71%; under `Cc1ncccc1Oc1ncnc(N2CCC3(CCCO3)CC2)c1C`, -7.69%.
Under `Cc1nn(C)cc1-c1ccnc(N2CCN(c3ccccc3)C(=O)C2)n1` stands -3.19%; under `CN(C)C(C(=O)NCC1(O)CCCCC1)c1cccc(F)c1` (stereo unspecified), -2.16%.
Under `COc1ccc(C(=O)N2C[C@@H](CN3CCCC3)[C@@H](CO)C2)c(C)c1` stands -8.12%; under `Cc1noc(C)c1CN(Cc1cccnc1)C1CN2CCC1CC2` (stereo unspecified), 25%; under `CN(C)S(=O)(=O)N1CC[C@]2(O)CCN(CCCc3cccnc3)C[C@@H]2C1`, 1.31%.
Take `COCCN(C)Cc1nc(-c2cccc(F)c2F)oc1C`: the cytotoxicity at 70.5 h was -11.3%.
Under `FC(F)C(F)(F)COCc1ncnn1-c1ccc2c(c1)OCO2` stands 6.96%; under `CN(C)c1nc2c(c(N3CCCC4(CC3)CNC(=O)O4)n1)CCCC2` (stereo unspecified), -1.83%; under `Cn1ccnc1C1CCN(CCC2CCOC2)CC1` (stereo unspecified), 14.8%.
For `CCCc1nc(C(=O)N2C[C@H](CO)C[C@H](CN3CCOCC3)C2)cs1`, the cytotoxicity at 70.5 h is -8.72%.
Under `C1CCc2nnc(CNc3nc(C4CC4)nc4c3CCNCC4)n2CC1` stands -5.38%; under `Cc1cccc(C)c1OC1CN(C(=O)C2CCN(C(=O)N(C)C)CC2)C1`, 29.8%.
Under `CNC(=O)C1CCN(c2cc(C3CCNCC3)nc(C)n2)C1` (stereo unspecified) stands -19.2%; under `CCN1Cc2nc(OC)c(CNC(=O)C3CCS(=O)(=O)CC3)cc2C1=O`, -2.6%.
